Assays:
Assay in all cases: drug sensitivity score (DSS) (DSS (unitless, 0-50 scale)); higher = more sensitive (stronger viability inhibition); extreme values may be limits of the assay
Conditions in all cases: 72 h; culture: 2D
SK-MEL-2 = tested on: SK-MEL-2
Summary of the method: (§1)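 Patient-derived melanoma cultures (1000–1500 cells per well) and melanoma cell lines were grown in 2D in 384-well plates holding a 527-compound oncology library. Each compound was dissolved in DMSO or water and tested at five concentrations spanning a 10,000-fold range. After 72 h at 37 °C, viability was read by CellTiter-Glo luminescence. A drug sensitivity score, a modified area-under-curve measure, was derived from dose-response curves fitted in the in-house Breeze software.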

FM-MEL-2 = tested on: FM-MEL-2
Summary of the method: as §1

SK-MEL-28 = tested on: SK-MEL-28
Summary of the method: as §1

Bowes = tested on: Bowes
Summary of the method: as §1

FM-MEL-3 = tested on: FM-MEL-3
Summary of the method: as §1

WM165 = tested on: WM165
Summary of the method: as §1

WM852 = tested on: WM852
Summary of the method: as §1

FM-MEL-6 = tested on: FM-MEL-6
Summary of the method: as §1

Row | Structure (SMILES) | drug sensitivity score (SK-MEL-2) | drug sensitivity score (FM-MEL-2) | drug sensitivity score (SK-MEL-28) | drug sensitivity score (Bowes) | drug sensitivity score (FM-MEL-3) | drug sensitivity score (WM165) | drug sensitivity score (WM852) | drug sensitivity score (FM-MEL-6)
1 | CN1CC[C@@H](NC(=O)Nc2ccc(C#N)cc2)C[C@@H]1c1nc2ccccc2[nH]1 [Glasdegib] | 0 | 0 | 0 | 0 | 0 | 0 | 0 | 0
2 | COCCNCc1ccc(-c2cc3nccc(Oc4ccc(NC(=S)NC(=O)Cc5ccc(F)cc5)cc4F)c3s2)nc1 [Glesatinib] | 0 | 0.4 | 0 | 0 | 0 | 0 | 0 | 0
3 | CN1CCN(C2CCN(C(=O)Nc3cc(Oc4ccc(NC(=O)C5(C(=O)Nc6ccc(F)cc6)CC5)c(F)c4)ccn3)CC2)CC1 [Golvatinib] | 0 | 1.5 | 0 | 2.3 | 0 | 0 | 0.5 | 0
4 | CC(C)C[C@H](NC(=O)[C@@H](COC(C)(C)C)NC(=O)[C@H](Cc1ccc(O)cc1)NC(=O)[C@H](CO)NC(=O)[C@H](Cc1c[nH]c2ccccc12)NC(=O)[C@H](Cc1cnc[nH]1)NC(=O)[C@@H]1CCC(=O)N1)C(=O)N[C@@H](CCCNC(=N)N)C(=O)N1CCC[C@H]1C(=O)NNC(N)=O [Goserelin] | 0 | 0 | 0 | 0 | 0 | 0 | 0 | 0
5 | O=S(=O)(c1cccc2c(O)nccc12)N1CCCNCC1 [Hydroxyfasudil] | 0 | 0 | 0 | 0 | 0 | 0 | 0 | 1.8
6 | NC(=O)NO [Hydroxyurea] | 0 | 0 | 0 | 2.4 | 6.8 | 0.1 | 0 | 2.2
7 | COc1cc2c(cc1-c1c(C)noc1C)ncc1[nH]c(=O)n([C@H](C)c3ccccn3)c12 [I-BET151] | 0.3 | 5.2 | 3.1 | 4.6 | 4.7 | 8.7 | 0 | 5
8 | O=C(O)c1ccc(O)c2ncccc12 [IOX-1] | 0 | 0.4 | 0.8 | 0 | 0.8 | 4.3 | 0 | 0.9
9 | O=C(O)CNC(=O)c1c(O)c2ccccc2n(Cc2ccccc2)c1=O [IOX-2] | 0 | 0 | 0 | 0 | 0 | 0 | 0.2 | 0
10 | C=CC(=O)N1CCC[C@@H](n2nc(-c3ccc(Oc4ccccc4)cc3)c3c(N)ncnc32)C1 [Ibrutinib] | 0 | 0.2 | 0 | 2.8 | 0 | 0 | 0 | 0
11 | C#Cc1cccc(Nc2ncnc3cc4c(cc23)OCCOCCOCCO4)c1 [Icotinib] | 0 | 0.4 | 0.1 | 0 | 0.1 | 0 | 0.1 | 0.9
12 | CC(=O)[C@]1(O)Cc2c(O)c3c(c(O)c2[C@@H](O[C@H]2C[C@H](N)[C@H](O)[C@H](C)O2)C1)C(=O)c1ccccc1C3=O [Idarubicin] | 9.7 | 8.4 | 8.4 | 5.4 | 10.9 | 15.4 | 4.8 | 8.1
13 | COc1cc(C(=O)O)ccc1NC(=O)[C@@H]1N[C@@H](CC(C)(C)C)[C@](C#N)(c2ccc(Cl)cc2F)[C@H]1c1cccc(Cl)c1F [Idasanutlin] | 0 | 3.7 | 0 | 3.4 | 19.7 | 22.7 | 0 | 0.3
14 | CC[C@H](Nc1ncnc2[nH]cnc12)c1nc2cccc(F)c2c(=O)n1-c1ccccc1 [Idelalisib] | 0 | 3.1 | 4.1 | 0.2 | 1 | 0.7 | 0.4 | 1.8
15 | Cc1ccc(NC(=O)c2ccc(CN3CCN(C)CC3)cc2)cc1Nc1nccc(-c2cccnc2)n1 [Imatinib] | 0 | 0.8 | 0.2 | 1 | 0 | 0.1 | 0.7 | 0
16 | CC(C)Cn1cnc2c(N)nc3ccccc3c21 [Imiquimod] | 0 | 0 | 0 | 4.7 | 0 | 0 | 0.1 | 0
17 | O=C(Nc1ccncc1)C(=O)c1cn(Cc2ccc(Cl)cc2)c2ccccc12 [Indibulin] | 3.7 | 1.4 | 4 | 11.1 | 6.1 | 7.8 | 5.3 | 6.9
18 | CCN1CCN(c2ccc(Nc3cc(N(C)C(=O)Nc4c(Cl)c(OC)cc(OC)c4Cl)ncn3)cc2)CC1 [Infigratinib] | 0 | 0 | 0 | 0 | 0 | 0 | 0 | 0
19 | CC(C)NC[C@@H](C(=O)N1CCN(c2ncnc3c2[C@H](C)C[C@H]3O)CC1)c1ccc(Cl)cc1 [Ipatasertib] | 0 | 2.1 | 1.7 | 0 | 0.3 | 2.2 | 0 | 0.9
20 | CCC(C)n1ncn(-c2ccc(N3CCN(c4ccc(OCC5COC(Cn6cncn6)(c6ccc(Cl)cc6Cl)O5)cc4)CC3)cc2)c1=O (stereo not drawn) [Itraconazole] | 0 | 1.4 | 0 | 4.7 | 2.8 | 0 | 0.9 | 0
21 | N#Cc1ccnc(N2C(=O)CC[C@H]2C(=O)N(c2cncc(F)c2)[C@H](C(=O)NC2CC(F)(F)C2)c2ccccc2Cl)c1 [Ivosidenib] | 0 | 0 | 0 | 0 | 0 | 0 | 0 | 0.3

Row | Structure (SMILES) | drug sensitivity score (SK-MEL-2) | drug sensitivity score (FM-MEL-2) | drug sensitivity score (SK-MEL-28) | drug sensitivity score (Bowes) | drug sensitivity score (FM-MEL-3) | drug sensitivity score (WM165) | drug sensitivity score (WM852) | drug sensitivity score (FM-MEL-6)
22 | C/C(=C\c1csc(C)n1)[C@@H]1C[C@@H]2O[C@]2(C)CCC[C@H](C)[C@H](O)[C@@H](C)C(=O)C(C)(C)[C@@H](O)CC(=O)N1 [Ixabepilone] | 2.9 | 0.8 | 2.3 | 8.5 | 5 | 3.6 | 6.1 | 3.7
23 | CC(C)C[C@H](NC(=O)CNC(=O)c1cc(Cl)ccc1Cl)B(O)O [Ixazomib] | 11.2 | 4.9 | 9.6 | 8.8 | 13.6 | 10.4 | 0.9 | 17
24 | Nc1cc(COc2c(Cl)cc(C[C@H](N)C(=O)O)cc2Cl)c2oc(-c3ccccc3)nc2c1 [JPH203] | 0 | 0 | 0 | 0 | 0 | 0 | 0 | 0.6
25 | CS(=O)(=O)CCNCc1ccc(-c2ccc3ncnc(Nc4ccc(OCc5cccc(F)c5)c(Cl)c4)c3c2)o1 [Lapatinib] | 0 | 0.6 | 0 | 1.1 | 0.2 | 0 | 0 | 0.1
26 | O=C(Nc1cnn2ccc(N3CCC[C@@H]3c3cc(F)ccc3F)nc12)N1CC[C@H](O)C1 [Larotrectinib] | 0 | 0 | 0 | 0 | 0 | 0 | 0 | 0
27 | Oc1ccc2c(c1)CC[C@H](c1ccccc1)[C@@H]2c1ccc(OCCN2CCCC2)cc1 [Lasofoxifene] | 0 | 0 | 0 | 0 | 0 | 0 | 0 | 0
28 | Nc1cccc2c1CN(C1CCC(=O)NC1=O)C2=O (stereo not drawn) [Lenalidomide] | 0 | 0 | 0 | 0 | 0 | 0 | 0 | 0
29 | COc1cc2nccc(Oc3ccc(NC(=O)NC4CC4)c(Cl)c3)c2cc1C(N)=O [Lenvatinib] | 0 | 0 | 0 | 1.3 | 0 | 0 | 0 | 0
30 | N#Cc1ccc(C(c2ccc(C#N)cc2)n2cncn2)cc1 [Letrozole] | 0 | 0 | 0 | 0 | 0 | 0 | 0 | 0
31 | Cc1ccc(F)c(NC(=O)Nc2ccc(-c3cccc4[nH]nc(N)c34)cc2)c1 [Linifanib] | 0 | 0.1 | 0 | 2.2 | 0 | 0 | 0 | 0
32 | C[C@]1(O)C[C@@H](c2nc(-c3ccc4ccc(-c5ccccc5)nc4c3)c3c(N)nccn32)C1 [Linsitinib] | 0 | 3.6 | 0 | 0 | 4.8 | 1.3 | 1 | 0.9
33 | CCNCCS(=O)(=O)NC[C@@]1(c2ccccc2)SC(NC(=O)C(C)(C)C)=NN1C(=O)C(C)(C)C [Litronesib] | 13.1 | 2.4 | 2.2 | 18.8 | 8.6 | 18.9 | 23.7 | 10.2
34 | Nc1nc(OCc2cc(Br)cs2)c2[nH]cnc2n1 [Lomeguatrib] | 0 | 0 | 0 | 0 | 0 | 0 | 0 | 0
35 | NC(=O)N1CCC(CC(=O)N2CCC([C@H]3c4ncc(Br)cc4CCc4cc(Cl)cc(Br)c43)CC2)CC1 [Lonafarnib] | 5.3 | 9.4 | 8.1 | 30.9 | 18.2 | 13 | 12.1 | 8.1
36 | Cc1c(F)cc(C(=O)NC2CC2)cc1-c1ccc(C(=O)NCC(C)(C)C)cn1 [Losmapimod] | 0 | 1.6 | 0 | 2.8 | 0.7 | 0 | 0 | 0
37 | CC[C@H](C)C(=O)O[C@H]1C[C@@H](C)C=C2C=C[C@H](C)[C@H](CC[C@@H]3C[C@@H](O)CC(=O)O3)[C@H]21 [Lovastatin] | 0 | 0 | 0 | 2.1 | 0.1 | 1.8 | 0.6 | 0
38 | CNC(=O)c1cccc2cc(Oc3ccnc4cc(OCC5(N)CC5)c(OC)cc34)ccc12 [Lucitanib] | 0 | 0.3 | 0 | 5.4 | 0 | 1.6 | 2.2 | 1.3
39 | CCNC(=O)c1noc(-c2cc(C(C)C)c(O)cc2O)c1-c1ccc(CN2CCOCC2)cc1 [Luminespib] | 9.3 | 10.7 | 9.2 | 15.2 | 21.4 | 20.3 | 9.7 | 8.1
40 | O=C(O)CC[C@H]1CC[C@@](c2cc(F)ccc2F)(S(=O)(=O)c2ccc(Cl)cc2)CC1 [MK-0752] | 0 | 0 | 0 | 0 | 0 | 0 | 0 | 0
41 | NC1(c2ccc(-c3nc4ccn5c(=O)[nH]nc5c4cc3-c3ccccc3)cc2)CCC1 [MK-2206] | 0 | 2.6 | 2 | 0 | 0.9 | 1.1 | 0.4 | 1.9
